pIC50: −log10 of the molar value.
Legend:
EGFR wild type (EGFR WT) = EGFR wild type (EGFR WT) (Homo sapiens (Human), UniProt P00533); experiment: Cellular Phosphorylation Assay, Assay 5 (EGF-stimulated EGFR phosphorylation, NIH 3T3 cells); type: cell-based
ErbB2 WT = ErbB2 WT (Homo sapiens (Human), UniProt P04626); experiment: ErbB Enzyme Assay (HTRF KinEASE-TK), Assay 2; type: biochemical
[1] = target: ErbB2 with Exon 20 YVMA insertion (HER2-YVMA) (Homo sapiens (Human), UniProt P04626, INS775YVMA); experiment: Cellular Phosphorylation Assay, Assay 4 (constitutive ErbB2 phosphorylation, NIH 3T3 cells); type: cell-based
EGFR = EGFR (Homo sapiens (Human), UniProt P00533); experiment: ErbB Enzyme Assay (HTRF KinEASE-TK), Assay 3; type: biochemical
[2] = EGF-stimulated EGFR WT phosphorylation
[3] = cellular EGFR WT phosphorylation, EGF-stimulated
[4] = cellular ErbB2 YVMA phosphorylation

Chain of ErbB2 with Exon 20 YVMA insertion (HER2-YVMA) (P04626 other isoform, or with tags, fused parts or gaps ins YVMA behind 775): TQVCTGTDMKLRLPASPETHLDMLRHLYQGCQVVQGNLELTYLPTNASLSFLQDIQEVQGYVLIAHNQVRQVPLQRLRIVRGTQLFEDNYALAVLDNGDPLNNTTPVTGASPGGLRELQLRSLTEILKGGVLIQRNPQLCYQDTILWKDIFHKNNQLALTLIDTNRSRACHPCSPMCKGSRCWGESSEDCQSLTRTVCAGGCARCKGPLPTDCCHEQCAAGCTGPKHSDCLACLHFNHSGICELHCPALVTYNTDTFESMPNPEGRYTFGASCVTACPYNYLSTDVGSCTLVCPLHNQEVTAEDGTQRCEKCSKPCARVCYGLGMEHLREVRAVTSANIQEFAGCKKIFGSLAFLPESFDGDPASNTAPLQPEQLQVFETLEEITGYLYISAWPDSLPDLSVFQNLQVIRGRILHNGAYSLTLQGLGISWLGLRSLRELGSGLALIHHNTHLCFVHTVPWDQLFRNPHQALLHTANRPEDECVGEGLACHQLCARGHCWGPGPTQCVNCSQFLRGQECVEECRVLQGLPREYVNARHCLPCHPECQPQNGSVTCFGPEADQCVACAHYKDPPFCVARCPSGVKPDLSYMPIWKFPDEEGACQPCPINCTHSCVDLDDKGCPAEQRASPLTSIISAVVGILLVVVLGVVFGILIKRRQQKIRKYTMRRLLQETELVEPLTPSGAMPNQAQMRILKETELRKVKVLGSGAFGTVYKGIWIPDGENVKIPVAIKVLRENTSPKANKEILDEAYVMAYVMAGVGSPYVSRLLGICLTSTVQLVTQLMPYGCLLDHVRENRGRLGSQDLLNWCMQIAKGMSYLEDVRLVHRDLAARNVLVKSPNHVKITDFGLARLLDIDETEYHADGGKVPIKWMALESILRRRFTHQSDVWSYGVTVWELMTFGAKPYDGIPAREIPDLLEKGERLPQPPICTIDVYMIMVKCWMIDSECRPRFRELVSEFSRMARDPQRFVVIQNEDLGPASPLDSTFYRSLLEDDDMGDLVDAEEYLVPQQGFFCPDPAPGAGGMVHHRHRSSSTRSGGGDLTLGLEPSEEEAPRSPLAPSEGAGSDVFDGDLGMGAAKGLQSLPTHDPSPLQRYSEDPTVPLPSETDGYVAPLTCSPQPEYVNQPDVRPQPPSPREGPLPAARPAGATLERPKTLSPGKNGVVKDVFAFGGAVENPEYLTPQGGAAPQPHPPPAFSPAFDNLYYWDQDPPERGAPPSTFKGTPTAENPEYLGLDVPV
Chain of ErbB2 WT (P04626 23-1255): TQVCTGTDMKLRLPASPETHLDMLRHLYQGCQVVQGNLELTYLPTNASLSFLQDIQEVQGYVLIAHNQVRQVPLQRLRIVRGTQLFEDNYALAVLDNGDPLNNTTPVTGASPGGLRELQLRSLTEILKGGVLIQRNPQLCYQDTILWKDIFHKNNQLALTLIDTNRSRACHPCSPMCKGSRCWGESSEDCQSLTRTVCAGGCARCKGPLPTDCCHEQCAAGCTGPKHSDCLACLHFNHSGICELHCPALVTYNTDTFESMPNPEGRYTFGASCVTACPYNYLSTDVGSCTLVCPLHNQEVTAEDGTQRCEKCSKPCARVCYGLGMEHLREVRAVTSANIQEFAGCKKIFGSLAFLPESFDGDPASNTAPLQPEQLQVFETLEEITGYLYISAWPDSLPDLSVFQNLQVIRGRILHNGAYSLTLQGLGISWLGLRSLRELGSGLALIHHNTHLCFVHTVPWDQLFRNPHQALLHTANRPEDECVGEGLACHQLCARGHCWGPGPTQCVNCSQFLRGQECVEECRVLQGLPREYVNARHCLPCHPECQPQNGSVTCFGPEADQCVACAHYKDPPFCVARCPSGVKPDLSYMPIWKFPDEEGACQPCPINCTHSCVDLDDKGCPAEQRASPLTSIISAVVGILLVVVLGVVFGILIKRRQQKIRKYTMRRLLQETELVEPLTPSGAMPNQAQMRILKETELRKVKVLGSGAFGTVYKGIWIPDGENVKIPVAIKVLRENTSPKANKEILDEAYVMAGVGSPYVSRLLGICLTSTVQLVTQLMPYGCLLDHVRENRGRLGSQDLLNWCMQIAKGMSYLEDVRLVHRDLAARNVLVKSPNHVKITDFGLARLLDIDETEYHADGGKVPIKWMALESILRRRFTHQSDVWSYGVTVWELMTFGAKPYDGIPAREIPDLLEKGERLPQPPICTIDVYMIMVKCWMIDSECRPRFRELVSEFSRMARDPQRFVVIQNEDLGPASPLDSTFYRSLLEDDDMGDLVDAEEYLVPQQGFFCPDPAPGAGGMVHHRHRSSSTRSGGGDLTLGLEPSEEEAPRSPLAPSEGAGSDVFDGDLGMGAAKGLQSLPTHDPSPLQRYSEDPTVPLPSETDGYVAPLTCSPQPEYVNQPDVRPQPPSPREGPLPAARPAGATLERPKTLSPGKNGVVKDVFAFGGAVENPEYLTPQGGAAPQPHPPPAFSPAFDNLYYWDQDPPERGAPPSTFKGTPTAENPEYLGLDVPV
Chain of EGFR wild type (EGFR WT) (P00533 25-1210): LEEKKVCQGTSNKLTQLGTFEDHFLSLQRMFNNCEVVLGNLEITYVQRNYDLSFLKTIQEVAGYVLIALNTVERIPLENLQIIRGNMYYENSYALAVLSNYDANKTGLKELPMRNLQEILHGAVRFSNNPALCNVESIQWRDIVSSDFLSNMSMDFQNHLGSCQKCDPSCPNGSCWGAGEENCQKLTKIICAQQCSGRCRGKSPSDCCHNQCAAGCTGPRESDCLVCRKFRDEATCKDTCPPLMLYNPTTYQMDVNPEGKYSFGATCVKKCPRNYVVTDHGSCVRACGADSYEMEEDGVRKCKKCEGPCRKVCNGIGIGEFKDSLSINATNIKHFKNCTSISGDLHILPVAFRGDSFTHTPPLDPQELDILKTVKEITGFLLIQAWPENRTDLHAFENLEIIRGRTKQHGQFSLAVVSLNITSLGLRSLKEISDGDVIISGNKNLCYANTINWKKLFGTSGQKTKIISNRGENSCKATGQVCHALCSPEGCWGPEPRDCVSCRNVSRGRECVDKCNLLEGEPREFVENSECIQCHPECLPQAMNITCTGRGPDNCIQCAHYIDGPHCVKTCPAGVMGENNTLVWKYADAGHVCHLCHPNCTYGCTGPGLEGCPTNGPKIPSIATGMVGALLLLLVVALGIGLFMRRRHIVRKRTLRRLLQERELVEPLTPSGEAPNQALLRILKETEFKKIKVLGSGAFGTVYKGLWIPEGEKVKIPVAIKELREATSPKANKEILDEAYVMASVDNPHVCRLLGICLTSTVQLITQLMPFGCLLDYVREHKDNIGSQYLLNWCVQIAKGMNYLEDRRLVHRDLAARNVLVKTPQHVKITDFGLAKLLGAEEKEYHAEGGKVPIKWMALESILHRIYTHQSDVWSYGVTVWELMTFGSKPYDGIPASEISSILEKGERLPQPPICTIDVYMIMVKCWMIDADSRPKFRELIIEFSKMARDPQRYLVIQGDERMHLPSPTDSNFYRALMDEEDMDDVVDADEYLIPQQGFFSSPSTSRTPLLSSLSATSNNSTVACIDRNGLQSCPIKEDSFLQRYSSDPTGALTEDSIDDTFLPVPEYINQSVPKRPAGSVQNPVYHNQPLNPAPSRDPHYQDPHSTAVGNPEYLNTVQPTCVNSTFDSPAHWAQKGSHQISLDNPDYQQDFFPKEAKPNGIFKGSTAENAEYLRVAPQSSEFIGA
Chain of EGFR (P00533 25-1210): as above

Compound	pIC50 (EGFR wild type (EGFR WT); [2])	pIC50 (ErbB2 WT; ErbB2 WT enzyme)	pIC50 ([1]; ErbB2 YVMA phosphorylation)	pIC50 (EGFR; EGFR enzyme)	pIC50 (EGFR wild type (EGFR WT); [3])	pIC50 (ErbB2 WT; ErbB2 WT enzyme assay)	pIC50 [1, 4]	pIC50 (EGFR; EGFR enzyme assay)
C=CC(=O)N1[C@@H]2CC[C@H]1C[C@@H](c1ccc3ncnc(Nc4cc(C)c(Oc5cnc6c(c5)ncn6C)cc4F)c3n1)C2 [Example 226, 1-((1R,3r,5S)-3-(4-((2-fluoro-5-methyl-4-((3-methyl-3H-imidazo[4,5-b]pyridin-6-yl)oxy)phenyl)amino)pyrido[3,2-d]pyrimidin-6-yl)-8-azabicyclo[3.2.1]octan-8-yl)prop-2-en-1-one]	≤ 5.30	6.51	7.43	≤ 5.00	–	–	–	–
C=CC(=O)N1C[C@H]2C[C@@H]1[C@H](c1ccc3ncnc(Nc4ccc(Oc5ccn6ncnc6c5)c(Cl)c4F)c3n1)C2 [Example 231, 1-((1R,4R,6R)-6-(4-((4-([1,2,4]triazolo[1,5-a]pyridin-7-yloxy)-3-chloro-2-fluorophenyl)amino)pyrido[3,2-d]pyrimidin-6-yl)-2-azabicyclo[2.2.1]heptan-2-yl)prop-2-en-1-one]	6.83	8.00	8.06	7.15	–	–	–	–
C=CC(=O)N1CC[C@H]2C[C@@H]1CN2c1ccc2ncnc(Nc3ccc(Oc4cnc5c(c4)ncn5C)c(C)c3F)c2n1 [Example 237, 1-((1R,5S)-6-(4-((2-fluoro-3-methyl-4-((3-methyl-3H-imidazo[4,5-b]pyridin-6-yl)oxy)phenyl)amino)pyrido[3,2-d]pyrimidin-6-yl)-2,6-diazabicyclo[3.2.1]octan-2-yl)prop-2-en-1-one]	≤ 5.30	5.88	6.59	≤ 5.00	–	–	–	–
C=CC(=O)N1C2CCC1CN(c1ccc3ncnc(Nc4ccc(Oc5ccn6ncnc6c5)c(Cl)c4F)c3n1)C2 [Example 238, 1-(3-(4-((4-([1,2,4]triazolo[1,5-a]pyridin-7-yloxy)-3-chloro-2-fluorophenyl)amino)pyrido[3,2-d]pyrimidin-6-yl)-3,8-diazabicyclo[3.2.1]octan-8-yl)prop-2-en-1-one]	7.04	7.93	8.26	6.94	–	–	–	–
CC#CC(=O)N1C2CCC1CN(c1ccc3ncnc(Nc4ccc(Oc5ccn6ncnc6c5)c(C)c4F)c3n1)C2 [Example 240, 1-(3-(4-((4-([1,2,4]triazolo[1,5-a]pyridin-7-yloxy)-2-fluoro-3-methylphenyl)amino)pyrido[3,2-d]pyrimidin-6-yl)-3,8-diazabicyclo[3.2.1]octan-8-yl)but-2-yn-1-one]	5.69	6.85	7.03	5.31	–	–	–	–
C=CC(=O)N1C2CC1CN(c1ccc3ncnc(Nc4cc(Cl)c(Oc5cnc6c(c5)ncn6C)cc4F)c3n1)C2 [Example 241, 1-(3-(4-((5-chloro-2-fluoro-4-((3-methyl-3H-imidazo[4,5-b]pyridin-6-yl)oxy)phenyl)amino)pyrido[3,2-d]pyrimidin-6-yl)-3,6-diazabicyclo[3.1.1]heptan-6-yl)prop-2-en-1-one]	≤ 5.30	6.45	7.65	≤ 5.00	–	–	–	–
C=CC(=O)N1CCN(c2ccc3ncnc(Nc4ccc(Oc5ccn6ncnc6c5)c(C(F)(F)F)c4)c3n2)CC1(C)C [Example 242, 1-(4-(4-((4-([1,2,4]triazolo[1,5-a]pyridin-7-yloxy)-3-(trifluoromethyl)phenyl)amino)pyrido[3,2-d]pyrimidin-6-yl)-2,2-dimethylpiperazin-1-yl)prop-2-en-1-one]	5.46	6.74	7.02	5.35	–	–	–	–
C=CC(=O)N1CCN(c2ccc3ncnc(Nc4ccc(Oc5ccc6scnc6c5)c(C)c4F)c3n2)CC1(C)C [Example 243, 1-(4-(4-((4-(benzo[d]thiazol-5-yloxy)-2-fluoro-3-methylphenyl)amino)pyrido[3,2-d]pyrimidin-6-yl)-2,2-dimethylpiperazin-1-yl)prop-2-en-1-one]	6.18	6.47	7.30	5.92	–	–	–	–
C=CC(=O)N1CC2CCC(C1)N2c1ccc2ncnc(Nc3ccc(Oc4cnc5c(c4)ncn5C)c(C)c3F)c2n1 [Example 244, 1-(8-(4-((2-fluoro-3-methyl-4-((3-methyl-3H-imidazo[4,5-b]pyridin-6-yl)oxy)phenyl)amino)pyrido[3,2-d]pyrimidin-6-yl)-3,8-diazabicyclo[3.2.1]octan-3-yl)prop-2-en-1-one]	6.50	7.33	7.78	6.75	–	–	–	–
C=CC(=O)N1CCN(c2ccc3ncnc(Nc4ccc(Oc5cnc6c(c5)ncn6C)c(C)c4)c3n2)CC1(C)C [Example 250]	–	–	–	–	5.50	7.55	8.05	5.38
C=CC(=O)N1CCN(c2ccc3ncnc(Nc4ccc(Oc5ccc6c(c5)ncn6C)c(C)c4F)c3n2)C[C@H]1C(C)C [Example 253]	–	–	–	–	≤ 5.30	6.79	7.51	≤ 5.00
C=CC(=O)N1[C@H](C)CN(c2ccc3ncnc(Nc4ccc(Oc5ccc6c(c5)ncn6C)c(C)c4F)c3n2)C[C@H]1C [Example 255]	–	–	–	–	≤ 5.30	6.10	6.77	≤ 5.00
C=CC(=O)N1[C@@H](C)CN(c2ccc3ncnc(Nc4ccc(Oc5ccc6c(c5)ncn6C)c(C)c4F)c3n2)C[C@@H]1C [Example 256]	–	–	–	–	≤ 5.30	7.24	7.17	≤ 5.00
C=CC(=O)N1[C@@H](C)CN(c2ccc3ncnc(Nc4cc(C)c(Oc5ccc6c(c5)ncn6C)cc4F)c3n2)C[C@@H]1C [Example 257]	–	–	–	–	≤ 5.30	7.27	6.94	≤ 5.00
C=CC(=O)N1[C@@H](C)CN(c2ccc3ncnc(Nc4cc(Cl)c(Oc5ccc6c(c5)ncn6C)cc4F)c3n2)C[C@@H]1C [Example 258]	–	–	–	–	≤ 5.30	5.00	7.00	≤ 5.00
C=CC(=O)N1CCCN(c2ccc3ncnc(Nc4ccc(Oc5ccn6ncnc6c5)c(C)c4F)c3n2)CC1(C)C [Example 259]	–	–	–	–	5.46	7.69	7.11	≤ 5.00

Compound	pIC50 (EGFR wild type (EGFR WT); [2])	pIC50 (ErbB2 WT; ErbB2 WT enzyme)	pIC50 ([1]; ErbB2 YVMA phosphorylation)	pIC50 (EGFR; EGFR enzyme)	pIC50 (EGFR wild type (EGFR WT); [3])	pIC50 (ErbB2 WT; ErbB2 WT enzyme assay)	pIC50 [1, 4]	pIC50 (EGFR; EGFR enzyme assay)
C=CC(=O)N1CCCN(c2ccc3ncnc(Nc4cc(C)c(Oc5ccn6ncnc6c5)cc4F)c3n2)CC1(C)C [Example 260]	–	–	–	–	≤ 5.30	7.38	6.94	5.35
C=CC(=O)N1[C@H](C)CN(c2ccc3ncnc(Nc4cc(C)c(Oc5ccn6ncnc6c5)cc4F)c3n2)C[C@@H]1C [Example 263]	–	–	–	–	≤ 5.30	6.83	6.69	≤ 5.00
C=CC(=O)N1CCN(c2ccc3ncnc(Nc4ccc(Oc5ccn6ncnc6c5)c(C)c4F)c3n2)C[C@@H]1C(C)C [Example 266]	–	–	–	–	≤ 5.30	6.75	7.04	≤ 5.00
C=CC(=O)N1CCN(c2ccc3ncnc(Nc4ccc(Oc5cc(F)c6c(c5)ncn6C)c(C)c4)c3n2)CC12CC2 [Example 281]	–	–	–	–	6.89	7.98	7.96	6.99
C=CC(=O)N1CCN(c2ccc3ncnc(Nc4ccc(Oc5ccn6ncnc6c5)c(C)c4F)c3n2)C[C@H]1C1CC1 [Example 283]	–	–	–	–	5.86	7.55	7.47	5.34
C=CC(=O)N1CCN(c2ccc3ncnc(Nc4cc(C)c(Oc5ccn6ncnc6c5)cc4F)c3n2)C[C@@H]1C1CC1 [Example 284]	–	–	–	–	≤ 5.30	7.60	7.17	≤ 5.00
C=CC(=O)N1CCN(c2ccc3ncnc(Nc4ccc(Oc5ccn6ncnc6c5)c(C)c4F)c3n2)C[C@@H]1C1CC1 [Example 285]	–	–	–	–	≤ 5.30	7.18	7.47	≤ 5.00
C=CC(=O)N1CCN(c2ccc3ncnc(Nc4ccc(Oc5ccn6ncnc6c5)c(Cl)c4F)c3n2)C[C@H]1C(C)C [Example 291]	–	–	–	–	6.56	7.83	8.02	6.33
C=CC(=O)N1CCN(c2ccc3ncnc(Nc4ccc(Oc5ccn6ncnc6c5)c(Cl)c4F)c3n2)C[C@@H]1C(C)C [Example 293]	–	–	–	–	≤ 5.30	7.30	7.67	5.63
C=CC(=O)N1CCN(c2ccc3ncnc(Nc4ccc(Oc5ccn6ncnc6c5)c(C)c4F)c3n2)C[C@@H]1C(C)(C)C [Example 295]	–	–	–	–	≤ 5.30	6.81	7.10	5.99
C=CC(=O)N1CC(Cc2ccc3ncnc(Nc4ccc(Oc5ccn6ncnc6c5)c(C)c4F)c3n2)C1 [Example 298]	–	–	–	–	6.04	7.44	7.52	6.59
C=CC(=O)N1CC2(CCN(c3ccc4ncnc(Nc5ccc(Oc6ccn7ncnc7c6)c(C)c5F)c4n3)C2)C1 [Example 307]	–	–	–	–	≤ 5.30	6.98	7.44	≤ 5.00
C=CC(=O)N1CCN(c2ccc3ncnc(Nc4ccc(Oc5ccn6ncnc6c5)c(C)c4F)c3n2)CC12CCC2 [Example 308]	–	–	–	–	6.96	7.81	8.08	6.36
C=CC(=O)N1CCN(c2ccc3ncnc(Nc4cc(Cl)c(Oc5ccn6ncnc6c5)cc4F)c3n2)C[C@H]1C(C)(C)C [Example 309]	–	–	–	–	≤ 5.30	5.00	7.79	≤ 5.00
C=CC(=O)N1CCN(c2ccc3ncnc(Nc4cc(C)c(Oc5ccn6ncnc6c5)cc4F)c3n2)C[C@H]1C(C)(C)C [Example 310]	–	–	–	–	≤ 5.30	5.00	7.48	≤ 5.00
C=CC(=O)N1CCN(c2ccc3ncnc(Nc4ccc(Oc5ccn6ncnc6c5)c(Cl)c4F)c3n2)C[C@H]1C(C)(C)C [Example 311]	–	–	–	–	6.25	7.10	7.79	≤ 5.00

From US12447153B2, “HER2 mutation inhibitors” (Array BioPharma Inc., priority 2021, dated 2025)
